Test results from US7244712B2, “Aminoglycoside antibiotics and methods of using same” (priority 2004, dated 2007).
Values after ≈ are worked out from the molar mass of the structure shown.

Assays:
[1] = test system: E. coli S30 extract, containing 70S ribosomes; experiment: In vitro protein translation (CAT mRNA, 35S methionine incorporation); format: biochemical; settings: quantitation of gel bands, read-out: IC50, concentration producing 50% inhibition of translation
Experimental: Protein translation was performed from chloramphenicol acetyl transferase (CAT) mRNA. […] A commercial E. coli ribosomal suspension was supplemented with an E. coli extract containing the required elements for translation. These include translation factors, tRNAs, and aminoacyl tRNA synthases. Plasmid, T7 RNA polymerase and amino acids were added to the reaction mixture, and both transcription and translation steps were performed in the same vial. The effects of the aminoglycosides on the translation process were evaluated by measuring the incorporation of ^35S methionine in the translated chloramphenicol acetyl transferase protein.
In vitro translation was performed by using PROTEINscript™-PRO (Ambion) kit. […] Reaction mixtures contained appropriate concentrations of antibiotic (neomycin B, D- and L-neamine). The protein was translated from CAT mRNA, transcribed from control DNA template containing CAT gene under control of the T7 promotor. The product, ˜25 kDa chloramphenicol acetyl transferase, was labeled during translation with 1 μCi ^35S methionine (New England Nuclear) per reaction (no cold methionine was added).
Following the translation, the samples were analyzed by electrophoresis on 4-20% SDS mini-gels (Invitrogen) for 1.5 h at 120V. Gels were fixed with 40% methanol/10% acetic acid and exposed to Molecular Dynamics phosphoimager plates, which were read on a Personal FX phosphoimager (Bio-Rad) and quantitated using QuantityOne™ software.

E. faecalis = experiment: Antibacterial activity against E. faecalis; format: cell-based
80S ribosome = experiment: Fluorescence anisotropy binding to 80S ribosomes; set-up: species or system yeast (S. cerevisiae); settings: competition with CRP, yeast ribosomes; read-out: Dissociation constant (KD) with 80S ribosome
Experimental: After establishing the lack of stereospecificity in the binding of aminoglycosides to the A-site RNA constructs (FIG. 9A-C) where the binding affinity, KD, is about 0.1 μM to about 100 μM, the stereospecificity of aminoglycoside binding to intact ribosomes was determined. Both yeast and E. coli ribosomes were prepared and aminoglycoside binding was measured using fluorescence anisotropy methods. For example, fluorescence anisotropy methods recited in Wang, Y., and Rando, R. R. Chem. Biol. (1995) 2, 281-290; and Wang, Y., Hamasaki, K., and Rando, R. R. Biochemistry (1997) 36,768-779. CRP was used as the binding probe. […] Binding data reported herein for aminoglycoside compounds with eukaryotic yeast ribosomes are similar to binding data for said aminoglycoside compounds with ribosoimes in bacteria and with eukaryotic A-site rRNA constructs.
5-Carboxytetramethylrhodamine-labeled paromomycin (CRP) and tobramycin (CRT) concentrations were determined spectroscopically at 550 nm using a molar extinction coefficient of 6.00×10 4 M −1 cm −1. Fluorescence anisotropy measurements were performed on a Perkin-Elmer LS-50B luminescence spectrometer equipped with a thermostat accurate to ±0.1° C. as indicated previously (Wang, Y., Hamasaki, K., & Rando, R. R. (1997) Biochemistry 36, 768-779). The tracer solution was excited at 550 nm and monitored at 580 nm. The integration time was 5 s. For every point, 6 measurements were taken, and their average values were used for calculation. Measurements were carried out in a buffer solution containing 150 mM NaCl, 5 mM KCl, 1 mM CaCl2, 1 mM MgCl2, and 20 mM HEPES (pH 7.5). Prior to measurements, RNA constructs were renatured by incubating in binding buffer {150 mM NaCl, 5 mM KCl, 1 mM CaCl2, 1 mM MgCl2, and 20 mM HEPES (pH 7.5)} for 3 minutes at 90° C. followed by slow cooling to 25° C.
Equation 1 was used for the determination of the dissociation constant (Kd) for the interactions between RNA or ribosome and CRP. A=A0+DA{(RNA)0+(CRP)0+Kd−({(RNA)0+(CRP)0+Kd}^2−4(RNA)0(CRP)0)½}/2 where A and A0 are the fluorescence anisotropy of CRP in the presence and absence of RNA, respectively, and DA is the difference between the fluorescence anisotropy of CRP in the presence of an extrapolated infinite concentration of RNA minus the fluorescence anisotropy in the absence of RNA. (RNA)0 and (CRP)0 are the initial concentrations of RNA and CRP, respectively.
Equation 2 is used for the calculation of the KD values in the competition binding assay. (aminoglycoside)0={KD(A−−A)/Kd(A−A0)+1}{(RNA)0−Kd(A−A0)/(A−−A)−(CRP)0(A−A0)/(A−−A)} where KD is the dissociation constant between the RNA and the aminoglycosides; (aminoglycoside)0 is the initial concentration of the aminoglycosides; AL is anisotropy of completely bound tracer. Both Kd and KD were determined by non-linear curve fitting using the equations described above, and are presented as mean values of three independent measurements.
The purification of yeast 80S ribosomes from S. cerevisiae strain YSB 758 was carried out according to the published procedure (Verschoor, A., Warner, J. R., Srivastava, S., Grassucci, R. A., & Frank, J. (1997) Nucl. Acid Res. 26, 655-661). S. cerevisiea YSB 758 were grown for 12 hrs at 30° C. in 2L of YPD medium, containing: 20 g bacto peptone, 20 g glucose, 10 g yeast extract and 0.15 g tryptophan per 1 L, pH 7.0. The cells were lysed by 5-10 cycles of 1 min vigorous shaking with glass beads with a vortex, followed by cooling on ice. Clarified cell extract (about 9 mL total, used in 6 portions in 1.5 mL aliqouts) was carefully loaded on top of 2 mL of a cushion, composed of 10% sucrose and 5% ammonium sulfate dissolved in buffer YR1 (20 mM HEPES pH=7.4, 16 mM magnesium chloride, 100 mM potassium chloride, 5 mM DTT, and 0.5 mM EDTA). The ribosomes were collected by centrifugation in Beckman TL100.3 rotor at 75000 rpm for 3 h. The supernatants were carefully discarded and ribosomes were collected in buffer YR1. […]

[2] = test system: E. coli (ATCC 25922) transformed with pMM plasmid bearing APH(3')IIa; experiment: MIC, kanamycin/neomycin resistant E. coli; format: cell-based; settings: growth inhibition greater than 90%
Experimental: E. coli (ATCC 25922) and P. aeruginosa (ATCC 27853) (BD Bioscience) were inoculated in 3 mL of the medium 2 (U.S. Pharmacopia), containing 6 g peptone, 3 g yeast extract and 1.5 g beef extract per 1 L, pH 6.6, and were grown in a shaker for 6 h at 37° C. until an OD 560=0.6-0.8 was reached.
(§1) Minimal inhibitory concentrations (MIC) were measured according to the published method (Greenberg, W. A., Priestley, E. S., Sears, P. S., Alper, P. B., Rosenbohm, C., Hendrix, M., Hung, S.-C., & Wong, C.-H. (1999) J. Am. Chem. Soc. 121, 6527-6541). E. coli (ATCC 25922) (both wild type and pMM-transformed) and P. aeruginosa (ATCC 27853) were grown in medium 2 to an optical density OD 600 of 0.6-0.8. The inoculi were diluted to OD 600 ˜0.1 in medium 2 and 1 mL of the culture was placed in 13 mL test tubes. The desired concentrations of antibiotic were added from stock solutions. […] The absorbance at 600 nm of each sample was read and MIC was taken as the lowest antibiotic concentration inhibiting bacterial growth by greater than 90%.

[3] = test system: P. aeruginosa (ATCC 27853); experiment: MIC, P. aeruginosa; format: cell-based; settings: growth inhibition greater than 90%
Experimental: as §1

S. aureus = experiment: Antibacterial activity against S. aureus; format: cell-based
E. coli (ATCC 25922) = experiment: MIC, wild type E. coli; format: cell-based; settings: growth inhibition greater than 90%
Experimental: as §1

## NCC1OC(OC2C(N)CC(N)C(O)C2O)C(N)C(O)C1O [L-Neamine]
[1]
  IC50: 195 µM
E. faecalis
  Antibacterial activity against E. faecalis: little to no antibacterial activity
80S ribosome
  Kd: 6.06 ± 0.63 µM
[2]
  Minimal inhibitory concentration (MIC), E. coli kan/neo resistant: 2100 µM (≈ 677 µg/mL)
[3]
  Minimal inhibitory concentration (MIC), P. aeruginosa: 1600 µM (≈ 516 µg/mL)
S. aureus
  Antibacterial activity against S. aureus: little to no antibacterial activity
E. coli (ATCC 25922)
  Minimal inhibitory concentration (MIC), E. coli: 1300 µM (≈ 419 µg/mL)
